# Experimental data from US8012944B2, “Method for treating cancer using IAP antisense oligomer and chemotherapeutic agent” (Pharmascience Inc., priority 2003, dated 2011).
# Tests used:
# XIAP mRNA = XIAP mRNA knock-down in H460 cells (real-time RT-PCR / TaqMan); type: cell-based, human; settings: real-time PCR, 1.2 μM, 6 hours of transfection (FIG. 6)
# In short: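 NCI-H460 cells transfected with phosphorothioate antisense oligonucleotides via Lipofectamine 2000; RNA isolated after 6 h treatment. XIAP mRNA quantified by one-step TaqMan real-time RT-PCR, comparative Ct (threshold 30× baseline SD), normalized to GAPDH and expressed relative to untreated control cells.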
# H460 cells = assay: H460 cell growth, viability or death (MTT assay); type: cell-based, human; settings: 1.2 μM
# Method: Growth inhibition of […] cells was determined by the colorimetric MTT cell viability/proliferation assay. In brief, cells were treated with liposome-oligonucleotide complexes for 4.5 h, then incubated for another 48 h at 37° C. in medium without transfection reagent or oligonucleotides in the presence or absence of anticancer drugs. MTT (25 μg/well) was added to each well, and the plates incubated for 3 h at 37° C. Following the incubation step, the colored formazan product was dissolved by the addition of 200 μl DMSO. Plates were read using the microtiter plate reader (Dynex Technologies Inc., Chantilly, Va.) at a wavelength of 570 nm. The percentage of surviving cells in wells treated with oligonucleotides was normalized to untreated controls. All assays were performed in triplicate.
# [1] = test system: MDA-MB-435/LCC6 human breast carcinoma xenografts; assay: Systemic (i.p.) PS-oligonucleotides in LCC6 breast carcinoma xenografts; type: in vivo, female SCID-RAG2 mice; settings: 12.5 mg/kg i.p.; day 35, two weeks after the last treatment
# Method: Initial systemic PS-oligonucleotide studies were designed without any chemotherapeutic agents. SCID-RAG2 mice were inoculated with H460 human lung carcinoma cells (s.c. shoulder injection of 10^6 cells) and treatments with G4 and F3 AS PS-oligonucleotides, as well as a scrambled control, were initiated three days after tumor inoculation. Nucleobase oligomer injections were administered i.p. at 12.5 mg/kg three times a week for three weeks. At the end of the treatment period, mean tumor sizes in the groups treated with either G4 or F3 AS oligonucleotides were ˜50% smaller than in the group treated with a scrambled control oligonucleotides (FIG. 15). The same treatment protocol was tested on female SCID-RAG2 mice inoculated orthotopically with MDA-MB-435/LCC6 human breast carcinoma cells. Two weeks after the last treatment (day 35) tumor volumes of mice treated with F3, C5 or G4 AS oligonucleotides were 70%, 60%, and 45%, respectively, smaller than vehicle controls (FIG. 16).
# Efficacy experiments were conducted in male RAG2 immunodeficient mice bearing NCI-H460 tumours or female RAG2 mice bearing LCC6 tumors. Treatments were commenced on day 3 after tumor inoculation. Saline (controls), G4 AS oligonucleotides (5 or 15 mg/kg), or G4 SC oligonucleotides (5 or 15 mg/kg) were administered i.p. daily for five doses a week over a three week regimen. Vinorelbine (VNB, 5 or 10 mg/kg) was administered i.v. via the tail vein, either alone or in combination with oligonucleotides, at day 3, 7, 11 and 17 after tumor inoculation. When oligonucleotides were administered in combination with VNB, the drug treatment was performed four hours after ODN treatment.
sequence,measurement,setting,value
GCTGAGTCTCCATATTGCC [G4 AS] (chemistry not given here),reduction of XIAP mRNA level compared to untreated control,XIAP mRNA,55%
same,cell death,H460 cells; H460 cells,60%
same,reduction of H460 cell growth relative to untreated control,"H460 cells; MTT, 48 hours after transfection",55%
same,tumor volumes smaller than vehicle controls,[1],45%
